In ChEMBL document CHEMBL1201862, “PubChem BioAssay data set” (2004):
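Assay format: 96-well plates, 48-hour exposure. GI50 is the concentration that inhibits growth by half.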 Activity calls are given as the source filed them. Cut-off read from the data, not from the text of the source: active = GI50 up to about 1.1 µM and inactive = higher.

Columns and labels:
Assay in all cases: inhibition of tumour cell growth, NCI panel, 48 h
HCT-116 = test system: HCT-116
HCC 2998 = test system: HCC 2998
A498 = test system: A498
UO-31 = test system: UO-31
M14 = test system: M14
RPMI-8226 = test system: RPMI-8226
ACHN = test system: ACHN
UACC-62 = test system: UACC-62
KM12 = test system: KM12
HCT-15 = test system: HCT-15
UACC-257 = test system: UACC-257
SF-539 = test system: SF-539
SK-MEL-2 = test system: SK-MEL-2
HL-60 = test system: HL-60
RXF 393 = test system: RXF 393
SF-268 = test system: SF-268
CCRF-CEM = test system: CCRF-CEM
U-251 = test system: U-251
NCI/ADR-RES = test system: NCI/ADR-RES
SK-MEL-28 = test system: SK-MEL-28
MDA-MB-435 = test system: MDA-MB-435
HOP-92 = test system: HOP-92
T47D = test system: T47D
IGROV-1 = test system: IGROV-1
SW-620 = test system: SW-620
DU-145 = test system: DU-145
NCI-H522 = test system: NCI-H522
Malme-3M = test system: Malme-3M
LOX IMVI = test system: LOX IMVI
COLO 205 = test system: COLO 205
OVCAR-3 = test system: OVCAR-3
SK-OV-3 = test system: SK-OV-3
MDA-MB-231 = test system: MDA-MB-231
PC-3 = test system: PC-3
OVCAR-8 = test system: OVCAR-8
SR = test system: SR
SNB-19 = test system: SNB-19
NCI-H460 = test system: NCI-H460
A549 = test system: A549
CAKI-1 = test system: CAKI-1
NCI-H226 = test system: NCI-H226
HOP-62 = test system: HOP-62
TK-10 = test system: TK-10
HT-29 = test system: HT-29
Hs-578T = test system: Hs-578T
NCI-H23 = test system: NCI-H23
MDA-N = test system: MDA-N
SK-MEL-5 = test system: SK-MEL-5
SNB-75 = test system: SNB-75
EKVX = test system: EKVX
786-0 = test system: 786-0
MOLT-4 = test system: MOLT-4
MCF7 = test system: MCF7
K562 = test system: K562
OVCAR-4 = test system: OVCAR-4
SF-295 = test system: SF-295
SN12C = test system: SN12C
OVCAR-5 = test system: OVCAR-5
BT-549 = test system: BT-549

SMILES: CC(=O)CC(O)(C(F)(F)Cl)C(F)(F)Cl
- GI50 (HCT-116): > 10 µM (inactive)
- GI50 (HCC 2998): > 10 µM (inactive)
- GI50 (A498): > 10 µM (inactive)
- GI50 (UO-31): > 10 µM (inactive)
- GI50 (M14): > 10 µM (inactive)
- GI50 (RPMI-8226): > 10 µM (inactive)
- GI50 (ACHN): > 10 µM (inactive)
- GI50 (UACC-62): > 10 µM (inactive)
- GI50 (KM12): > 10 µM (inactive)
- GI50 (HCT-15): > 10 µM
- GI50 (UACC-257): > 10 µM (inactive)
- GI50 (SF-539): > 10 µM (inactive)
- GI50 (SK-MEL-2): > 10 µM (inactive)
- GI50 (HL-60): > 10 µM (inactive)
- GI50 (RXF 393): > 10 µM (inactive)
- GI50 (SF-268): > 10 µM (inactive)
- GI50 (CCRF-CEM): > 10 µM (inactive)
- GI50 (U-251): > 10 µM (inactive)
- GI50 (NCI/ADR-RES): > 10 µM (inactive)
- GI50 (SK-MEL-28): > 10 µM (inactive)
- GI50 (MDA-MB-435): > 10 µM (inactive)
- GI50 (HOP-92): > 10 µM (inactive)
- GI50 (T47D): > 10 µM (inactive)
- GI50 (IGROV-1): > 10 µM (inactive)
- GI50 (SW-620): > 10 µM (inactive)
- GI50 (DU-145): > 10 µM (inactive)
- GI50 (NCI-H522): > 10 µM (inactive)
- GI50 (Malme-3M): > 10 µM (inactive)
- GI50 (LOX IMVI): > 10 µM (inactive)
- GI50 (COLO 205): > 10 µM (inactive)
- GI50 (OVCAR-3): > 10 µM (inactive)
- GI50 (SK-OV-3): > 10 µM (inactive)
- GI50 (MDA-MB-231): > 10 µM (inactive)
- GI50 (PC-3): > 10 µM (inactive)
- GI50 (OVCAR-8): > 10 µM (inactive)
- GI50 (SR): > 10 µM (inactive)
- GI50 (SNB-19): > 10 µM (inactive)
- GI50 (NCI-H460): > 10 µM (inactive)
- GI50 (A549): > 10 µM (inactive)
- GI50 (CAKI-1): > 10 µM (inactive)
- GI50 (NCI-H226): > 10 µM (inactive)
- GI50 (HOP-62): > 10 µM (inactive)
- GI50 (TK-10): > 10 µM (inactive)
- GI50 (HT-29): > 10 µM (inactive)
- GI50 (Hs-578T): > 10 µM (inactive)
- GI50 (NCI-H23): > 10 µM (inactive)
- GI50 (MDA-N): > 10 µM (inactive)
- GI50 (SK-MEL-5): > 10 µM (inactive)
- GI50 (SNB-75): > 10 µM (inactive)
- GI50 (EKVX): > 10 µM (inactive)
- GI50 (786-0): > 10 µM (inactive)
- GI50 (MOLT-4): > 10 µM (inactive)
- GI50 (MCF7): > 10 µM (inactive)
- GI50 (K562): > 10 µM (inactive)
- GI50 (OVCAR-4): > 10 µM (inactive)
- GI50 (SF-295): > 10 µM (inactive)
- GI50 (SN12C): > 10 µM (inactive)

SMILES: Nn1c(S)nnc1-c1ccccc1Nc1ccccc1-c1nnc(S)n1N
- GI50 (HCT-116): > 50 µM (inactive)
- GI50 (HCC 2998): > 50 µM (inactive)
- GI50 (UO-31): > 50 µM (inactive)
- GI50 (M14): > 50 µM (inactive)
- GI50 (RPMI-8226): 41.8 µM (inactive)
- GI50 (ACHN): > 50 µM (inactive)
- GI50 (UACC-62): > 50 µM (inactive)
- GI50 (KM12): > 50 µM (inactive)
- GI50 (HCT-15): > 50 µM
- GI50 (UACC-257): > 50 µM (inactive)
- GI50 (SF-539): > 50 µM (inactive)
- GI50 (SK-MEL-2): > 50 µM (inactive)
- GI50 (HL-60): > 50 µM (inactive)
- GI50 (RXF 393): > 50 µM (inactive)
- GI50 (SF-268): > 50 µM (inactive)
- GI50 (CCRF-CEM): > 50 µM (inactive)
- GI50 (OVCAR-5): > 50 µM (inactive)
- GI50 (U-251): > 50 µM (inactive)
- GI50 (NCI/ADR-RES): > 50 µM (inactive)
- GI50 (SK-MEL-28): > 50 µM (inactive)
- GI50 (MDA-MB-435): > 50 µM (inactive)
- GI50 (HOP-92): > 50 µM (inactive)
- GI50 (IGROV-1): > 50 µM (inactive)
- GI50 (SW-620): > 50 µM (inactive)
- GI50 (DU-145): > 50 µM (inactive)
- GI50 (NCI-H522): > 50 µM (inactive)
- GI50 (Malme-3M): > 50 µM (inactive)
- GI50 (LOX IMVI): > 50 µM (inactive)
- GI50 (COLO 205): > 50 µM (inactive)
- GI50 (OVCAR-3): > 50 µM (inactive)
- GI50 (PC-3): > 50 µM (inactive)
- GI50 (OVCAR-8): > 50 µM (inactive)
- GI50 (SR): > 50 µM (inactive)
- GI50 (SNB-19): > 50 µM (inactive)
- GI50 (NCI-H460): > 50 µM (inactive)
- GI50 (NCI-H226): > 50 µM (inactive)
- GI50 (HOP-62): > 50 µM (inactive)
- GI50 (TK-10): > 50 µM (inactive)
- GI50 (HT-29): > 50 µM (inactive)
- GI50 (BT-549): > 50 µM (inactive)
- GI50 (NCI-H23): > 50 µM (inactive)
- GI50 (SK-MEL-5): > 50 µM (inactive)
- GI50 (SNB-75): > 50 µM (inactive)
- GI50 (EKVX): > 50 µM (inactive)
- GI50 (786-0): > 50 µM (inactive)
- GI50 (MOLT-4): > 50 µM (inactive)
- GI50 (MCF7): > 50 µM (inactive)
- GI50 (K562): > 50 µM (inactive)
- GI50 (OVCAR-4): > 50 µM (inactive)
- GI50 (SF-295): > 50 µM (inactive)
